Laboratory results: article PMC7308271, “Discovery of a new class of orthosteric antagonists with nanomolar potency at extrasynaptic GABAA receptors” (Scientific Reports, 2020)
Where “and” joins values, the source holds several entries; their conditions need not be identical. Identical values can stand only once. Like-named read-outs stand apart in the source and are kept apart here.

Columns and labels:
Format in all cases: cell-based
[1] = biological target: T1, human α2β2γ2 GABAΑ receptor (Homo sapiens, UniProt P47869+P47870); assay: FMP assay at α2β2γ2 GABAA receptors in HEK cells
T1 construct: expressed in transfected cells; host or cells: HEK background (HEK293 Flp-In stably expressing NPBWR2), transient α:β:γ 1:1:2
Description: (§1) HEK293 cells were maintained in DMEM containing GlutaMAX-I, supplemented with 10% FBS and 1% penicillin-streptomycin and incubated at 37 °C and a humidity of 5% CO2. For expression of δ-containing GABAΑ receptors, a HEK293 Flp-In^ΤΜ cell line stably expressing the human GABAΑ δ-subunits (referred to as δ-HEK) was used and the γ-containing subtypes was expressed in a background HEK293 Flp-In^ΤΜ cell line stably expressing the G-protein coupled peptide receptor NPBWR2 (referred to as HEK background)[26], both positively selected for using 200 μg/mL hygromycin B. α1β2γ2 receptors were stably expressed in a HEK293 cell line maintained as above but with no selection (gift from Marianne L. Jensen, Neurosearch).
(§2) To express recombinant GABAΑ receptors human α1, α2, α3, α5, α6, β2, γ2 (pcDNA3.1/Zeo) and α4, β1 (pUNIV)[26] subunit cDNA were transiently transfected into either δ-HEK or HEK background cells. δ-HEK cells were transfected with α- and β-subunits in a 1:1 ration whereas HEK background cells were transfected with α-, β- and γ-subunits in a 1:1:2 ratio. Human BGT1 (pcDNA5/FRT)[43] was transiently transfected into the δ-HEK cell line. δ-HEK cells transfected for whole-cell patch-clamp recordings were co-transfected with green fluorescent protein (GFP) as well as α- and β-subunits in a 0.5:1:1 ratio (0.8 μg + 1.6 μg + 1.6 μg in a 6 cm dish) in order to identify transfected cells. The transfection was carried out using Polyfect as transfection reagent according to the manufactures protocol expect for using half the recommended volume of Polyfect.
(§3) The FMP assay was performed as previously described with a few modifications. […] Data was obtained as changes in fluorescence units (∆RFU) by measuring emission at 560 nm caused by excitation at 530 nm. […]
(§4) Data obtained in the FMP assay are given as relative changes in fluorescence units (ΔRFU) by subtracting the average of the baseline fluorescence signal from the peak fluorescence signal after compound addition. […]

[2] = biological target: T2, human α3β2γ2 GABAΑ receptor (Homo sapiens, UniProt P34903+P47870); assay: FMP assay at α3β2γ2 GABAA receptors in HEK cells
T2 construct: expressed in transfected cells; host or cells: HEK background (HEK293 Flp-In stably expressing NPBWR2), transient α:β:γ 1:1:2
Description: as §1, §2, §3, §4

[3] = biological target: T3, human α4β1δ GABAΑ receptor (Homo sapiens, UniProt P18505+P48169); assay: FMP assay at α4β1δ GABAA receptors in HEK cells (screening, concentration-inhibition, Schild analysis); details: for IC50: vs GABA EC80 0.27–1.0 μM, mean
T3 construct: expressed in transfected cells; host or cells: δ-HEK (HEK293 Flp-In stably expressing human δ), transiently transfected with α4 and β1 1:1
Source text: We have previously established a FLIPR membrane potential (FMP) assay to study recombinant δ-containing GABAΑRs entailing a HEK293 Flp-In cell line stably expressing the human δ-subunit which is suitable for co-transfection with any desired α/β subunits. Initially, we validated the applicability of the FMP assay for efficient compound screening in 96-well microtiter plates using the human α4β1δ GABAΑR heterologously expressed in HEK cells. This receptor was chosen as we have previously shown this system to be reliable in expressing δ-containing receptors. To this end, we determined the Z′-factor, which is a statistical factor used to measure the suitability of an assay for high throughput screening.
Thus, we went on to further characterize 2027 by making a full concentration-inhibition curve.
as §1, §2
The FMP assay was performed as previously described with a few modifications. Briefly, HEK cells were transfected as described[26] and 16–20 hours later plated (50,000 cells/well in DMEM medium) into clear-bottomed black 96-well plates coated with poly-D-lysine and the assay performed 20–28 hours later. The assay protocol including the FMP blue dye incorporation into membranes was exactly as described in Falk-Petersen et al.[26]. […] Data was obtained as changes in fluorescence units (∆RFU) by measuring emission at 560 nm caused by excitation at 530 nm. Unless otherwise mentioned in the text or figure legends experiments were performed in at least three independent experiments each using three technical replicates.
Data obtained in the FMP assay are given as relative changes in fluorescence units (ΔRFU) by subtracting the average of the baseline fluorescence signal from the peak fluorescence signal after compound addition. All raw traces were inspected manually and peak signals resulting from compound/buffer addition together with signal artefacts were omitted from the analysis.
The concentration-response curves obtained in the FMP assay for both agonists (determining EC50 values) and antagonists (determining IC50 values) were fitted using the four-parameter concentration-response model: Response=bottom+top−bottom/1+10^[(logEC50-A)⋅nH] EC/IC50 values describe the concentration resulting in the half-maximal response (halfway between top and bottom), and nΗ is the Hill coefficient.

[4] = biological target: T4, human α4β1γ2 GABAΑ receptor (Homo sapiens, UniProt P18505+P48169); assay: FMP assay at α4β1γ2 GABAA receptors in HEK cells
T4 construct: expressed in transfected cells; host or cells: HEK background (HEK293 Flp-In stably expressing NPBWR2), transient α:β:γ 1:1:2
Description: as §1, §2, §3, §4

[5] = read-out: pIC50 ± SEM (converted)

T3 sequence (P48169 36-554): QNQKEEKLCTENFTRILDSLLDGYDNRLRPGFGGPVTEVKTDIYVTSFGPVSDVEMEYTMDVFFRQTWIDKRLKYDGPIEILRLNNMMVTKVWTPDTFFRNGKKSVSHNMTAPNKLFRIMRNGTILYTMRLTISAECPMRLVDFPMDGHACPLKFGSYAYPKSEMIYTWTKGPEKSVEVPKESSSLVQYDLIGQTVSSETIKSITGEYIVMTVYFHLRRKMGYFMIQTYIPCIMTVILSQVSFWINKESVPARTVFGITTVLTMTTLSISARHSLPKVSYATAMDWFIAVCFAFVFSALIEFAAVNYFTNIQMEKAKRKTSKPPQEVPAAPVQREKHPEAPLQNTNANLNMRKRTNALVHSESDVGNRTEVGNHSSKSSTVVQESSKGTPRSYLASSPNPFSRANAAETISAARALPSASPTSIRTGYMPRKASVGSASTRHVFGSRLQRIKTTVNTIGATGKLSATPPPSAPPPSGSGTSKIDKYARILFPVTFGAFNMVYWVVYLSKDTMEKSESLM
T3 sequence (P18505 26-474): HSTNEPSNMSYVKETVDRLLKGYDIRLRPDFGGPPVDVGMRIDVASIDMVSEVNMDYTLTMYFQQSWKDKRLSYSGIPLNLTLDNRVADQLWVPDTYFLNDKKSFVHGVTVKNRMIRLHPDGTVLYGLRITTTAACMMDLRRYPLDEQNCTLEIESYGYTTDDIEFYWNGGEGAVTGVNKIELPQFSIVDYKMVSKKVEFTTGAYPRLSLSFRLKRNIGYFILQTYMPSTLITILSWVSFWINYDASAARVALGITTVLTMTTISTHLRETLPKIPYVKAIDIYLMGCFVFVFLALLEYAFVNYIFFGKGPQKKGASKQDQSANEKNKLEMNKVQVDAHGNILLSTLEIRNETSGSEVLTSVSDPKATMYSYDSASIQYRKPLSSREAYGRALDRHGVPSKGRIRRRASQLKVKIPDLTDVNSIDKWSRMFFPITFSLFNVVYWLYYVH
T3 sequence (O14764 25-452 partner): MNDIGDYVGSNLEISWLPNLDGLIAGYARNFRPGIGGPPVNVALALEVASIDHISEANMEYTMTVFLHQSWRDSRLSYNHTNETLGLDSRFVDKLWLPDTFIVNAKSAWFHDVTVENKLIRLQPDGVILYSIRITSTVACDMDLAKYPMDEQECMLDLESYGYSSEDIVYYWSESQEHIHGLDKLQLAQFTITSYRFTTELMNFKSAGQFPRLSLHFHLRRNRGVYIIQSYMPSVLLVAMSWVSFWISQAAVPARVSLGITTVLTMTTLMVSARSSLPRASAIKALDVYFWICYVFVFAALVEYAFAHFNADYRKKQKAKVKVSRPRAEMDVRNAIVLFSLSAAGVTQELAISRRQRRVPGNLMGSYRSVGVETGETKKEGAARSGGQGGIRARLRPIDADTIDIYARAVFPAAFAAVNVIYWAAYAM
T4 sequence (P48169 36-554): as the sequence (P48169 36-554) above
T4 sequence (P18505 26-474): as the sequence (P18505 26-474) above
T4 sequence (P18507 40-475 partner): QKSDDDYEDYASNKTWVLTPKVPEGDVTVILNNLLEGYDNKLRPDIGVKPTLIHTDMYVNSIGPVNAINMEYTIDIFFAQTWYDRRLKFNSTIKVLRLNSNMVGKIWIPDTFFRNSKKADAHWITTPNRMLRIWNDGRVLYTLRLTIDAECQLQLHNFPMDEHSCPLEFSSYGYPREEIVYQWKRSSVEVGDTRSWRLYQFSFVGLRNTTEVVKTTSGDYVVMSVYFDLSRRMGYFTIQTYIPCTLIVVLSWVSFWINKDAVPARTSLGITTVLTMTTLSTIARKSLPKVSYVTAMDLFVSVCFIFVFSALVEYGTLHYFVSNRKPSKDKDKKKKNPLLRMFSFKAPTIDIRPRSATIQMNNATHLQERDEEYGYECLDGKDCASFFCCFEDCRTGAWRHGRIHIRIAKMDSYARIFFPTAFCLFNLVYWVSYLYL
T2 sequence (P34903 29-492): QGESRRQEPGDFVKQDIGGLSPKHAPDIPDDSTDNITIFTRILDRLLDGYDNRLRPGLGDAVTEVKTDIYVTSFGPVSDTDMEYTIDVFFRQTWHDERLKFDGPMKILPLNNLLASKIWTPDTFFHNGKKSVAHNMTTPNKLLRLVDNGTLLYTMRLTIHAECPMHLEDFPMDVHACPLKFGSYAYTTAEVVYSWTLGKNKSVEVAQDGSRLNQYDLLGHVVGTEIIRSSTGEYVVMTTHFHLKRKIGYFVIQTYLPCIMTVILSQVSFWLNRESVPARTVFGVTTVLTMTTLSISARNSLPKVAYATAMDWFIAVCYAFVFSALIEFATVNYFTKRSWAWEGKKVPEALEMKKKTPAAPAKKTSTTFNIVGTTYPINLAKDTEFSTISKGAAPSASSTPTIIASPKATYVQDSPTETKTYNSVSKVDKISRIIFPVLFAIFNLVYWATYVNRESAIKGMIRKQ
T2 sequence (P47870 25-512 limits assumed): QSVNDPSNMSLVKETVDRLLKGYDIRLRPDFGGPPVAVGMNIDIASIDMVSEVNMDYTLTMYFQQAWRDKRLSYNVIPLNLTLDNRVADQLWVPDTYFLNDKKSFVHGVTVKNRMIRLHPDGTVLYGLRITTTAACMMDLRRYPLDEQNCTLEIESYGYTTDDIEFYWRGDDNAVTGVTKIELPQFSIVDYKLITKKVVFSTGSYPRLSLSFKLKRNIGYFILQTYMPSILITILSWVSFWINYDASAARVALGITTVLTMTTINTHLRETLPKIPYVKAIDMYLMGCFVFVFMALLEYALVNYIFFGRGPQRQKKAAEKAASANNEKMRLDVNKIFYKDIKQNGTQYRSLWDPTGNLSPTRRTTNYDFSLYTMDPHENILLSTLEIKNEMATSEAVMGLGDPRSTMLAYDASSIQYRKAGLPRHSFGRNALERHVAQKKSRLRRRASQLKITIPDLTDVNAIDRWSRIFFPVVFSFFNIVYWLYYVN
T2 sequence (P18507 40-475 partner): as the sequence (P18507 40-475 partner) above
T1 sequence (P47869 29-451): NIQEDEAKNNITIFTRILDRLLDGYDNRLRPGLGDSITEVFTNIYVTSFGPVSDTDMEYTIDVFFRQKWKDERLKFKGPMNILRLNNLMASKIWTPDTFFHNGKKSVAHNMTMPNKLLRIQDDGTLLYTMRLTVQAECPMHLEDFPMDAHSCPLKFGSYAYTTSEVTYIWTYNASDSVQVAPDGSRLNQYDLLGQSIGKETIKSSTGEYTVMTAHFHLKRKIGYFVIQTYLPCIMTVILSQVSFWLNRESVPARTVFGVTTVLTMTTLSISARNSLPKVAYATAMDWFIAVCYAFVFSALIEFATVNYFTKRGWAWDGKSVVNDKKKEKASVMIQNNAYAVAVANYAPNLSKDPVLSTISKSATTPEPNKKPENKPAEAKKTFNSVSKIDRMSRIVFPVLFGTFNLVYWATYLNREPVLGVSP
T1 sequence (P47870 25-512 limits assumed): as the sequence (P47870 25-512 limits assumed) above
T1 sequence (P18507 40-475 partner): as the sequence (P18507 40-475 partner) above

Row | IC50 [1, 5] [nM] | IC50 ([2]; read-out: IC50) [nM] | Kd ([3]; Gaddum/Schild analysis, read-out: KΒ from Schild analysis) [nM] | potency of 018 relative to 2027 ([3]; IC50 ratio) | IC50 [3] | IC50 [4] [nM] | IC50 ([1]; read-out: IC50) [nM] | IC50 [2, 5] [nM] | hit validation, antagonistic effect ([3]; 100, 50 and 10 μM in triplicates) | inhibition at 10 µM ([3]; HEK293, read-out: inhibition of the GABA EC80 signal, primary screening, 10 μM, singlicates) [%] | SMILES | GABA EC80 ([1]; α2β2γ2, calculated from GABA potencies) [nM] | GABA EC80 ([2]; α3β2γ2, calculated from GABA potencies) [nM] | GABA EC80 ([3]; calculated from GABA potencies) [nM] | GABA EC80 ([4]; α4β1γ2, calculated from GABA potencies) [nM]
1 | 324 | 79 | 19 | approximately 10 times | 90 nM and 88 nM | 37.2 | – | – | – | – | O=C(Nc1cccc(C(=O)N2CCC3(CCNCC3)CC2)c1)c1cccs1 [compound 018, N-(3-(3,9-diazaspiro[5.5]undecane-3-carbonyl)phenyl)thiophene-2-carboxamide] | – | – | – | –
2 | – | – | – | – | – | – | – | – | – | – | NCCCC(=O)O [GABA] | 10000 | 10000 | 270 to 1000 | 4000 to 8000
3 | – | – | – | – | 1030 nM | 166 | 2960 | 288 | showed antagonistic effect | > 50 | CC(=O)Nc1cccc(C(=O)N2CCC3(CCNCC3)CC2)c1 [compound 2027, N-(3-(3,9-diazaspiro[5.5]undecane-3-carbonyl)phenyl)acetamide] | – | – | – | –
